Measured values taken from US9108960B2 (priority 2011, dated 2015).
In brackets after ≈: the same amount, converted by molar mass.

Tests used:
M. tuberculosis XDR-1 = assay: Antimycobacterial assay, MIC by broth microdilution / Nitrate Reductase Assay; type: cell-based; conditions: Mycobacterium tuberculosis, XDR1, read-out: MIC M. tuberculosis XDR-1
M. tuberculosis H37Rv [1] = assay: as above; type: cell-based; conditions: Mycobacterium tuberculosis, exposure period 3-4 days
M. tuberculosis Rif^R = assay: as above; type: cell-based; conditions: Mycobacterium tuberculosis, read-out: MIC M. tuberculosis Rif^R
M. tuberculosis H37Rv [2] = conditions: literature values (footnote *); cited from earlier work

Compound | MIC (M. tuberculosis XDR-1) [µg/mL] | MIC (M. tuberculosis H37Rv [1]) [µg/mL] | MIC (M. tuberculosis Rif^R) [µg/mL] | MIC M. tuberculosis H37Rv (M. tuberculosis H37Rv [2]) [µg/mL]
O=C(Nc1ccc(N2CCC(c3n[nH]c(=O)o3)CC2)cc1)c1ccc([N+](=O)[O-])o1 [Compound 8a, N2-4-[4-(5-Oxo-4,5-dihydro-1,3,4-oxadiazol-2-yl)piperidino]phenyl-5-nitro-2-furamide] | 4 (≈ 10 µM) | 1 (≈ 2.5 µM) | 1 (≈ 2.5 µM) | 
CCn1nc(C2CCN(c3ccc(NC(=O)c4ccc([N+](=O)[O-])o4)cc3)CC2)oc1=O [Compound 8c, N2-4-[4-(4-Ethyl-5-oxo-4,5-dihydro-1,3,4-oxadiazol-2-yl)piperidino]phenyl-5-nitro-2-furamide] | 4 (≈ 9.36 µM) | 1 (≈ 2.34 µM) | 2 (≈ 4.68 µM) | 
O=C(Nc1ccc(N2CCC(c3n[nH]c(=O)o3)CC2)c(F)c1)c1ccc([N+](=O)[O-])o1 [Compound 8e, N2-3-Fluoro-4-[4-(5-oxo-4,5-dihydro-1,3,4-oxadiazol-2-yl)piperidino]phenyl-5-nitro-2-furamide] | 8 (≈ 19.2 µM) | 2 (≈ 4.79 µM) | 2 (≈ 4.79 µM) | 
Cn1nc(C2CCN(c3ccc(NC(=O)c4ccc([N+](=O)[O-])o4)cc3F)CC2)oc1=O [Compound 8f, N2-3-Fluoro-4-[4-(4-methyl-5-oxo-4,5-dihydro-1,3,4-oxadiazol-2-yl)piperidino]phenyl-5-nitro-2-furamide] | 4 (≈ 9.27 µM) | 1 (≈ 2.32 µM) | 2 (≈ 4.64 µM) | 
CCn1nc(C2CCN(c3ccc(NC(=O)c4ccc([N+](=O)[O-])o4)cc3F)CC2)oc1=O [Compound 8g, N2-4-[4-(4-Ethyl-5-oxo-4,5-dihydro-1,3,4-oxadiazol-2-yl)piperidino]-3-fluorophenyl-5-nitro-2-furamide] | 2 (≈ 4.49 µM) | 0.5 (≈ 1.12 µM) | 1 (≈ 2.25 µM) | 
O=c1[nH]nc(C2CCN(c3ccc(/N=C/c4ccc([N+](=O)[O-])o4)cc3)CC2)o1 [Compound 9a, 5-[1-(4-[(E)-1-(5-Nitro-2-furyl)methylidene]aminophenyl)-4-piperidyl]-2,3-dihydro-1,3,4-oxadiazol-2-one] | 4 (≈ 10.4 µM) | 2 (≈ 5.22 µM) | 4 (≈ 10.4 µM) | 
Cn1nc(C2CCN(c3ccc(/N=C/c4ccc([N+](=O)[O-])o4)cc3)CC2)oc1=O [Compound 9b, 3-Methyl-5-[1-(4-[(E)-1-(5-nitro-2-furyl)methylidene]aminophenyl)-4-piperidyl]-2,3-dihydro-1,3,4-oxadiazol-2-one] | 8 (≈ 20.1 µM) | 2 (≈ 5.03 µM) | 4 (≈ 10.1 µM) | 
CCn1nc(C2CCN(c3ccc(/N=C/c4ccc([N+](=O)[O-])o4)cc3)CC2)oc1=O [Compound 9c, 3-Ethyl-5-[1-(4-[(E)-1-(5-nitro-2-furyl)methylidene]aminophenyl)-4-piperidyl]-2,3-dihydro-1,3,4-oxadiazol-2-one] | 4 (≈ 9.72 µM) | 1 (≈ 2.43 µM) | 2 (≈ 4.86 µM) | 
O=c1oc(C2CCN(c3ccc(/N=C/c4ccc([N+](=O)[O-])o4)cc3)CC2)nn1Cc1ccccc1 [Compound 9d, 3-Benzyl-5-[1-(4-[(E)-1-(5-nitro-2-furyl)methylidene]aminophenyl)-4-piperidyl]-2,3-dihydro-1,3,4-oxadiazol-2-one] | 8 (≈ 16.9 µM) | 2 (≈ 4.22 µM) | 4 (≈ 8.45 µM) | 
O=c1[nH]nc(C2CCN(c3ccc(/N=C/c4ccc([N+](=O)[O-])o4)cc3F)CC2)o1 [Compound 9e, 5-[1-(2-Fluoro-4-[(E)-1-(5-nitro-2-furyl)methylidene]aminophenyl)-4-piperidyl]-2,3-dihydro-1,3,4-oxadiazol-2-one] | 8 (≈ 19.9 µM) | 2 (≈ 4.98 µM) | 2 (≈ 4.98 µM) | 
Cn1nc(C2CCN(c3ccc(/N=C/c4ccc([N+](=O)[O-])o4)cc3F)CC2)oc1=O [Compound 9f, 5-[1-(2-Fluoro-4-[(E)-1-(5-nitro-2-furyl)methylidene]aminophenyl)-4-piperidyl]-3-methyl-2,3-dihydro-1,3,4-oxadiazol-2-one] | 8 (≈ 19.3 µM) | 2 (≈ 4.81 µM) | 4 (≈ 9.63 µM) | 
CCn1nc(C2CCN(c3ccc(/N=C/c4ccc([N+](=O)[O-])o4)cc3F)CC2)oc1=O [Compound 9g, 3-Ethyl-5-[1-(2-fluoro-4-[(E)-1-(5-nitro-2-furyl)methylidene]aminophenyl)-4-piperidyl]-2,3-dihydro-1,3,4-oxadiazol-2-one] | 4 (≈ 9.32 µM) | 1 (≈ 2.33 µM) | 2 (≈ 4.66 µM) | 
O=c1oc(C2CCN(c3ccc(/N=C/c4ccc([N+](=O)[O-])o4)cc3F)CC2)nn1Cc1ccccc1 [Compound 9h, 3-Benzyl-5-[1-(2-fluoro-4-[(E)-1-(5-nitro-2-furyl)methylidene]aminophenyl)-4-piperidyl]-2,3-dihydro-1,3,4-oxadiazol-2-one] | 8 (≈ 16.3 µM) | 2 (≈ 4.07 µM) | 2 (≈ 4.07 µM) | 
O=c1[nH]nc(C2CCN(c3ccc(NCc4ccc([N+](=O)[O-])o4)cc3)CC2)o1 [Compound 10a, 5-[1-(4-[(5-Nitro-2-furyl)methyl]aminophenyl)-4-piperidyl]-2,3-dihydro-1,3,4-oxadiazol-2-one] | 4 (≈ 10.4 µM) | 1 (≈ 2.59 µM) | 4 (≈ 10.4 µM) | 
Cn1nc(C2CCN(c3ccc(NCc4ccc([N+](=O)[O-])o4)cc3)CC2)oc1=O [Compound 10b, 3-Methyl-5-[1-(4-[(5-nitro-2-furyl)methyl]aminophenyl)-4-piperidyl]-2,3-dihydro-1,3,4-oxadiazol-2-one] | 8 (≈ 20 µM) | 2 (≈ 5.01 µM) | 4 (≈ 10 µM) | 
CCn1nc(C2CCN(c3ccc(NCc4ccc([N+](=O)[O-])o4)cc3)CC2)oc1=O [Compound 10c, 3-Ethyl-5-[1-(4-[(5-nitro-2-furyl)methyl]aminophenyl)-4-piperidyl]-2,3-dihydro-1,3,4-oxadiazol-2-one] | 4 (≈ 9.68 µM) | 1 (≈ 2.42 µM) | 1 (≈ 2.42 µM) | 
O=c1oc(C2CCN(c3ccc(NCc4ccc([N+](=O)[O-])o4)cc3)CC2)nn1Cc1ccccc1 [Compound 10d, 3-Benzyl-5-[1-(4-[(5-nitro-2-furyl)methyl]aminophenyl)-4-piperidyl]-2,3-dihydro-1,3,4-oxadiazol-2-one] | 8 (≈ 16.8 µM) | 2 (≈ 4.21 µM) | 2 (≈ 4.21 µM) | 
O=c1[nH]nc(C2CCN(c3ccc(NCc4ccc([N+](=O)[O-])o4)cc3F)CC2)o1 [Compound 10e, 5-[1-(2-Fluoro-4-[(5-nitro-2-furyl)methyl]aminophenyl)-4-piperidyl]-2,3-dihydro-1,3,4-oxadiazol-2-one] | 8 (≈ 19.8 µM) | 2 (≈ 4.96 µM) | 2 (≈ 4.96 µM) | 
Cn1nc(C2CCN(c3ccc(NCc4ccc([N+](=O)[O-])o4)cc3F)CC2)oc1=O [Compound 10f, 5-[1-(2-Fluoro-4-[(5-nitro-2-furyl)methyl]aminophenyl)-4-piperidyl]-3-methyl-2,3-dihydro-1,3,4-oxadiazol-2-one] | 16 (≈ 38.3 µM) | 4 (≈ 9.58 µM) | 8 (≈ 19.2 µM) | 
CCn1nc(C2CCN(c3ccc(NCc4ccc([N+](=O)[O-])o4)cc3F)CC2)oc1=O [Compound 10g, 3-Ethyl-5-[1-(2-fluoro-4-[(5-nitro-2-furyl)methyl]aminophenyl)-4-piperidyl]-2,3-dihydro-1,3,4-oxadiazol-2-one] | 4 (≈ 9.27 µM) | 2 (≈ 4.64 µM) | 4 (≈ 9.27 µM) | 
O=c1oc(C2CCN(c3ccc(NCc4ccc([N+](=O)[O-])o4)cc3F)CC2)nn1Cc1ccccc1 [Compound 10h, 3-Benzyl-5-[1-(2-fluoro-4-[(5-nitro-2-furyl)methyl]aminophenyl)-4-piperidyl]-2,3-dihydro-1,3,4-oxadiazol-2-one] | 8 (≈ 16.2 µM) | 2 (≈ 4.05 µM) | 4 (≈ 8.11 µM) | 
O=C(Nc1cccc(F)c1)c1ccc([N+](=O)[O-])o1 [Compound 11a, N2-(3-fluorophenyl)-5-nitro-2-furamide] |  |  |  | 0.12 (≈ 0.48 µM)
O=C(Nc1ccncc1)c1ccc([N+](=O)[O-])o1 [Compound 11b, N2-(4-pyridyl)-5-nitro-2-furamide] |  |  |  | 0.8 (≈ 3.43 µM)
O=C(Nc1ccc(N2CCC(Cc3ccccc3)CC2)cc1)c1ccc([N+](=O)[O-])o1 [Compound 11c, N2-[4-(4-benzylpiperidino)phenyl]-5-nitro-2-furamide] |  |  |  | 3.12 (≈ 7.7 µM)
CC1CCCN(Cn2nc(-c3ccncc3)oc2=O)C1 (stereo not shown) [Compound 12a, 3-[(3-methylpiperidino)methyl]-5-(4-pyridyl)-2,3-dihydro-1,3,4-oxadiazol-2-one] |  |  |  | 3.13 (≈ 11.4 µM)
CN1CCN(Cn2nc(-c3ccncc3)oc2=O)CC1 [Compound 12b, 3-[(4-methylpiperazino)methyl]-5-(4-pyridyl)-2,3-dihydro-1,3,4-oxadiazol-2-one] |  |  |  | 1.25 (≈ 4.54 µM)
O=c1oc(-c2ccncc2)nn1CN1CCC(Cc2ccccc2)CC1 [Compound 12c, 3-[(4-benzylpiperidino)methyl]-5-(4-pyridyl)-2,3-dihydro-1,3,4-oxadiazol-2-one] |  |  |  | 2.5 (≈ 7.13 µM)
NNC(=O)c1ccncc1 [Isoniazid, reference compound] |  | 2.5 (≈ 18.2 µM) |  | 
CO[C@H]1/C=C/O[C@@]2(C)Oc3c(C)c(O)c4c(O)c(c(/C=N/N5CCN(C)CC5)c(O)c4c3C2=O)NC(=O)/C(C)=C\C=C\[C@H](C)[C@H](O)[C@@H](C)[C@@H](O)[C@@H](C)[C@H](OC(C)=O)[C@@H]1C [Rifampicin, reference compound] | 2 (≈ 2.43 µM) | 0.5 (≈ 0.608 µM) | > 128 | 
